Test results as given in US8318489B2, “Prostacyclin directed differentiation of cardiomyocytes from human embryonic stem cells” (priority 2005, dated 2012).

Assays:
Format in all cases: cell-based, human
hES cells [1] = test: Embryoid body differentiation of hES cells, visual scoring of beating EBs; settings: for CM induction activity (number of beating areas): growth factor 10 ng/ml added to END2-CM, day 12, compared to END2-CM alone; for effect on induction of cardiomyocytes: supplemented to DMEM3 (giving bSFS)
Description: This procedure describes the formation of embryoid bodies (EB) from collagenase-derived hES cell cultures. After formation the EBs were then exposed to END2 conditioned medium (CM).
Enzymatically passaged hES cells grown on feeder cells were washed once with PBS^+ and treated with Collagenase IV (1 mg/ml) for 3-4 min at 37° C. The Collagenase IV solution was replaced by DMEM and the cells were mechanically dissociated with a pipette tip. Cells were then harvested using a cell scraper and the cell suspension was transferred to a 50 ml tube (Falcon). Cell clumps were collected by gravity and the supernatant was aspirated. Cells were resuspended in fresh DMEM medium aiming to uniformly disperse the cell clumps in the suspension. An equal volume of the cell suspension was then transferred to ultra low attachment plates (Costar). Usually 6-well plates were used and cells were cultured in 2 ml of medium. Alternatively, cells can be seeded into plates under conditions supporting cell adherence to induce differentiation of hES cells attached to a surface.
In suspension culture, EBs are formed in ultra low attachment plates in SF medium over night. After over night incubation SF medium was replaced by fresh SF medium or END2-CM respectively for further differentiation. Subsequent medium changes were performed every 3-4 days. Usually, cells were cultured over a period of 12-13 days before the visual analysis of the proportion of beating EBs under a microscope was performed followed by cell collection for additional readouts. Multiple beating areas on single EBs were not counted separately. Values are expressed as a percentage of contracting EBs compared to […] in a single well of a 6-well tray. Cell harvest and analysis at time points other then 12-13 days after EB formation is indicated in the respective examples and figures of this embodiment. For EB scoring and other analytical methods hES cell differentiation was performed in triplicates applying the same culture conditions (e.g. the same medium added) in 3 independent wells of a 6-well plate. An average value per well was calculated and presented.

[2] = tested on: Transgenic hES cells carrying α-MHCneo; test: G418 selection of transgenic hES-derived cardiomyocytes, MF-20 staining
Description: Transgenic hES cells carrying α-MHCneo were differentiated in END-2 conditioned media as described in Example 8 and then selected with 200 µg/ml or 400 μg/ml G418 for various periods. Cells were dissociated by trypsin and plated onto chamber slides. Transgenic cardiomyocytes that were not selected with G418 were also plated as a control. Cells were then fixed by 2% paraformaldehyde and stained with the MF-20 antibody, which recognizes cardiac α-MHC. Cells were counterstained with haematoxylin to reveal nuclei. Cells […] for MF-20 staining in each slide preparation were counted and calculated as a percentage of total nuclei.

hES cells [3] = test: Cardiomyocyte quantification via cytospin (MF-20 / αMHC staining); settings: for cardiomyocyte yield compared to bSFS alone: L-IGF-I 5.0 ng/ml, AA 5.0 μM, FGF2 […] into bSFS
Description: EBs were washed twice with PBS (without calcium and magnesium) and dissociated to single cells using trypsin (Invitrogen). […] The cell pellet was resuspended in PBS and a cell count performed. 100,000 cells were spun at 500 rpm for 5 min onto glass slides at low acceleration using a cytospin system (Shandon). Adherent cells were fixed, stained and the total cell number (DAPI staining of cell nuclei) and the number of sarcomeric alpha myosin heavy chain positive cells (αMHC, MF-20 Ab, Hybridoma Bank, Iowa; 1:200 followed by respective rabbit-anti mouse Cy3-labeled secondary Ab 1:500, Zymed) were counted in at least 3 independent fields of view at 20× magnification with at least 300 nuclei per field; fields were randomly selected in the DAPI channel (Zeiss Axiovert 200M, Zeiss) avoiding bias towards cardiomyocyte content. The percentage of cardiomyocytes compared to the total cell nuclei number was calculated.
Readouts were performed on day 13. […] The percentage of cardiomyocytes was counted via cytospin and the cardiomyocyte yield was calculated from the total cell count per well and the percentage of cardiomyocytes. Results are presented in Table 2 which provides an analysis on day 12 EBs differentiated in the presence of respective media added with substances as indicated in the table. Differentiation was performed in suspension in a low attachment 6-well format. Average numbers per well of a 6-well plate are presented.

H3M11 cardiomyocytes = test: Microelectrode array recording of selected cardiomyocytes; settings: 10 μM isoproterenol; from 46 beats/min before addition
Source text: H3M11, one of the transgenic hES lines carrying the mouse α-MHCneo transgene, was differentiated in END-2 conditioned media to induce cardiomyocytes and then selected with G418 for 1 week. G418-selected H3M11 cardiomyocytes were dissociated and plated on microelectrode array chips each containing 64 electrodes (Multi Channel Systems MCS GmbH, Reutlingen, Germany). Extracellular recordings were made with the MEA1060 amplifier and MC-Rack software. Sampling rate was 10 kHz. A control recording was made before addition of compounds.

hES cells [4] = test: Real time RT-PCR for cardiac markers (α-MHC, ANF)
Description: RNA extraction: EBs at the end of the twelve day period were harvested. […] Trizol (Invitrogen) was added before freezing the EBs at -80° C. to ease cell lysis. Frozen samples were thawed and […]. Chloroform was added to the sample and incubated for 3 min at room temperature. The sample was centrifuged for 15 min at 13000 rpm at 4° C. and the aqueous phase collected. An equal volume of 70% ethanol was added before the sample was loaded onto an RNeasy mini column (Qiagen). The column was centrifuged for 15 sec at ≧8000 g. The rest of the purification steps were performed according to manufacturer's instructions. RNA was eluted in RNase-free water. 5 μg of the RNA sample was then treated with DNase (Invitrogen) in a volume of 50 μl. The mixture was incubated at room temperature for 30 min and heat inactivated for 10 min at 80° C. before cooling rapidly on ice. […] Samples were incubated for 1 hour at 37° C. before the reaction was terminated for 5 min at 95° C. RT-PCR was performed using 100 ng of cDNA with the following conditions: Cycle 1 (40×) denaturation at 95° C. for 10 s, annealing at 58° C. for 30 s and extension at 72° C. for 45 s. Melting curve step was included at the end with the following conditions: […] The gene primers used are α-MHC (sense primer: […] NO: 1); antisense primer: […] (sense primer: […] NO: 3); antisense primer […] NO: 4)) and β-Actin (sense primer: […] […]

[5] = insulin 0.1-10 μg/ml added to END2-CM

Compound: Igf2: recombinant human Igf2 (R&D)
- CM induction activity (number of beating areas) (hES cells [1]): enhance CM induction activity

Compound: CN[C@@H]1[C@@H](O)[C@@H](O[C@@H]2[C@@H](O)[C@H](O[C@H]3O[C@H]([C@@H](C)O)[C@@H](O)[C@H](O)[C@H]3N)[C@@H](N)C[C@H]2N)OC[C@]1(C)O [G418]
- Percent cardiomyocytes ([2]; G418 200 μg/ml for 10 days): 99.02%
- Percent cardiomyocytes ([2]; G418 200 μg/ml for 16 days): 99.20%
- Percent cardiomyocytes ([2]; G418 400 μg/ml 13 days): 99.53%
- Percent cardiomyocytes ([2]; G418 400 μg/ml for 7 days): 99.85%
- cells positive for the cardiac marker ([2]; two different G418 concentrations for various days): greater than 99%

Compound: CC(=O)O [AA, acetic acid]
- cardiomyocyte yield compared to bSFS alone (hES cells [3]): some increase

Compound: CC(C)NCC(O)c1ccc(O)c(O)c1 (stereo not shown) [isoproterenol]
- beating frequency (H3M11 cardiomyocytes): 70 beats/min

Compound: Transferrin: medium supplement, 0.0055 mg/ml Transferrin (Roche)
- effect on induction of cardiomyocytes (hES cells [1]): not inhibitory

Compound: FGF2: Basic Fibroblast Growth Factor; Invitrogen
- cardiomyocyte yield compared to bSFS alone (hES cells [3]): some increase

Compound: CCCCC[C@H](O)/C=C/[C@@H]1[C@H]2C/C(=C/CCCC(=O)[O-])O[C@H]2C[C@H]1O.[Na+] [PGI2, (5Z,9α,11α,13E,15S)-6,9-Epoxy-11,15-dihydroxyprosta-5,13-dien-1-oic acid Sodium salt]
- cardiomyocyte inducing activity (hES cells [1]; PGI2 0.2 and 2.0 μM in bSFS): increase in cardiomyocyte inducing activity to levels similar to that observed with END2-CM
- percentage of beating EBs (hES cells [1]; PGI2 2, 20, 200, 2000 nM in DMEM3, day 12, in comparison with basic DMEM3): significant increases
- percentage of the overall cell population that forms cardiomyocytes (hES cells [3]; bSFS+PGI2, cytospin MF20): equivalent to that observed in END2-CM cultures
- expression of cardiomyocyte marker genes α-MHC and ANF (hES cells [4]; bSFS+PGI2 compared to END-CM): equivalent, if not enhanced expression

Compound: O=[Se]([O-])[O-].[Na+].[Na+] [Selenium, sodium Selenite]
- effect on induction of cardiomyocytes (hES cells [1]): not inhibitory

Compound: Scf: recombinant human Scf, stem cell factor (CytoLab)
- CM induction activity (number of beating areas) (hES cells [1]): enhance CM induction activity

Compound: insulin: Insulin (Roche) spiked into END2-CM
- cardiomyocyte formation from hESC (hES cells [1]; insulin 10 μg/ml added to END2-CM): complete inhibition
- cardiomyocyte formation from hESC (hES cells [1]; [5]): dose dependent inhibition
- relative expression of early cardiomyocyte markers (MesP1, NRx2.5, ANF, α-MHC) (hES cells [4]; [5]): dose dependent decrease in expression
